Assay results reported in patent publication US20160089352A1, “CELL MEMBRANE TRANSPORT PROMOTER FOR SELECTIVE 5-HT1A SEROTONIN RECEPTORS” (NISHIZAKI BIOINFORMATION RESEARCH INSTITUTE, priority 2013, published 2016).

Tests used:
[1] = tested on: 5-HT1A serotonin receptor; experiment: Analysis of 5-HT receptor trafficking in rat hippocampus and hypothalamus sections (Western blotting of cellular membrane and cytoplasm fractions); assay type: cell-based; conditions: DCP-LA 100 nM
GSK-3β = experiment: Phosphorylation of GSK-3β at Ser9 in hypothalamus of mouse under or not under restraint stress (Western blotting); assay type: in vivo; conditions: total 11 days, FIG. 6
[2] = tested on: mouse under a restraint stress; experiment: Forced swimming test after restraint stress (depression model); assay type: in vivo; conditions: restraint-stressed mouse, 0.5, 0.75, 1.0, 5.0 mg/kg orally once per day, total 11 days; FIG. 3
Source text: At present, in the study of depression using the behavior of an experiment animal, the efficacy of antidepressant and reaction to stress, which are the both sides of depression, are mainly utilized. In a depression model, a method for inducing depression in an animal by imposing a stress such as solitude, electric shock, forced immersion in water, peripheral environment, temperature change and the like is mainly used. In this Experimental Example, a restraint stress animal model was used. A symptom corresponding to depression was induced by loading a stress by enclosing an experiment animal in a narrow space inhibiting movement, and whether an antidepressive effect was observed when a test compound was administered was examined. Male C57BL/6J mouse at 8-week-old was purchased from Japan SLC Inc. (Shizuoka. Japan). The mouse was enclosed in a 11.5 cm plastic cylinder (diameter 2.7 cm) for 3 hr per day, which was performed for 4 consecutive days to impart a stress.
A forced swimming test is a behavioral test used for screening for an antidepressive effect of a compound. Also in this Experimental Example, a forced swimming test was performed according to a previous report after a restraint stress (Porsolt R D. Le Pichon M, Jalfre M. Depression: a new animal model sensitive, to antidepressant treatments. Nature 1977; 266:730-732.). […]

[3] = tested on: 5-HT1A serotonin receptor; experiment: 5-HT1A serotonin receptor on cellular membrane in hippocampus and hypothalamus of restraint-stressed mouse after forced swimming test (Western blotting); assay type: in vivo; conditions: 1 mg/kg orally once per day, total 11 days, hippocampus, hypothalamus, FIG. 4

## CCCCCC1CC1CC1CC1CCCCCCCC(=O)O (stereo not drawn) [DCP-LA, 8-[2-(2-Pentyl-cyclopropylmethyl)-cyclopropyl]-octanoic acid]
[1]; 20 min, rat hippocampus and hypothalamus sections, compared with 5-HT2A serotonin receptor, FIG. 1
  expression of 5-HT1A serotonin receptor on the cellular membrane (ratio of cellular membrane to whole cells): selectively increased
[1]; rat hypothalamus section, GF109203X 100 nM, BoTX-A 0.1 U/ml, KN-93 3 μM, FIG. 2
  promoting action on cellular membrane trafficking of 5-HT1A serotonin receptor in the presence of inhibitors: significantly suppressed by BoTX and KN
GSK-3β; irrespective of the presence or absence of a restraint stress, mouse hypothalamus, 1 mg/kg orally
  phosphorylation of GSK-3β (Ser9): promote phosphorylation
GSK-3β; mouse under restraint stress, hypothalamus, 1 mg/kg orally once per day
  stress-induced suppression of phosphorylation of GSK-3β (Ser9): improves suppression of the phosphorylation
[2]
  immobility time in forced swimming test: immobility time decreasing effect in a dose-dependent manner
[3]
  stress-induced decrease in 5-HT1A serotonin receptor on the cellular membrane: recovered
